These results are taken from patent US20220064167A1, “IMIDAZO-PYRAZOLE CARBOXAMIDE DERIVATIVES AS ANTICANCER AGENTS AND THE SYNTHESIS THEREOF” (AVIDIN KFT., priority 2018, published 2022).

The test system of data set [1] is GBM2 (human glioblastoma). Kind of data set: viability assay (Table 2). Format: cell-based. Here is the method: (§1) For viability assays cells were seeded in 96 well plates (MCF7 and 4T1: 6000, HL60: 120.000 cells/well) and incubated overnight. Compounds were dissolved in dimethyl sulfoxide (DMSO). Cells were treated with an increasing concentration of compounds having the general formula (I.) (156 nM-100 μM). Cell viability was determined after 72h incubation. Resazurin reagent (Sigma-Aldrich) was dissolved in PBS (pH 7.4) at 0.15 mg/ml concentration, sterile filtered (0.22 μm, Merck Millipore) and aliquoted at −20° C. Resazurin reagent (Sigma-Aldrich) was added at a final concentration of 25 μg/ml. After 2 hours incubation at 37° C. 5% CO2 fluorescence (530 nm excitation/580 nm emission) was recorded on a multimode microplate reader (Cytofluor4000, PerSeptive Biosytems). Viability was calculated with relation to untreated control cells and blank wells containing media without cells. IC50 values (50% inhibiting concentration) were calculated by GraphPad Prism® 5 (La Jolla, Calif., USA).
(§2) GBM2 (human glioblastoma), HeLa (human cervical carcinoma), MIA PaCa-2 (human pancreas carcinoma) and U87MG (human glioblastoma) cells were maintained in Dulbecco's Modified Eagle Medium (DMEM) 10% fetal calf serum (FCS, Gibco). A375 (human melanoma), A549 (human lung adenocarcinoma) and HEP3B (human hepatoma) cells were maintained in Dulbecco's Modified Eagle Medium/Nutrient Mixture F-12 (DMEM/F12) 10% FCS.
(§3) Media were supplemented with 2 mM GlutaMAX, and 100 U/mL penicillin, 100 μg/mL streptomycin (Life Technologies, Carlsbad, Calif., USA). Cell cultures were maintained at 37° C. in a humidified incubator in an atmosphere of 5% CO2 (Sanyo, Japan).
(§4) Viability assays were performed as described in Example 102.

For another data set, the system named is A375 (human melanoma). Kind of data set: viability assay (Table 2). Format: cell-based. Conditions: A-375. Here is the method:
as §1, §2, §3, §4

The next data set deals with HT168 (human melanoma). Kind of data set: viability assay (Table 2). Format: cell-based. Here is the method: as §1
HT168 (human melanoma), HT199 (human melanoma), HT29 (human colorectal adenocarcinoma), MOLT4 (human leukemia) and U937 (human lymphoma) cells were maintained in Roswell Park Memorial Institute 1640 medium (RPMI-1640) 10% FCS. SKOV-3 cells were maintained in Dulbecco's Modified Eagle Medium/McCoy's medium (DMEM/McCoy) 10% FCS.
as §3, §4

The subject of data set [2] is human primary fibroblasts. Briefly: resazurin viability assay on primary fibroblasts, Example 103 (FIG. 1). The format is cell-based. As to conditions: 72 h incubation, applied concentration range 1.6 nM-5 μM. From the text: To obtain primary human fibroblasts healthy volunteers (age 18-60 years) were enrolled into the study. The punch biopsies were taken from healthy subjects from the breast area undergoing plastic surgery. Primary fibroblasts were obtained from the skin by enzymatic digestion according to a standard protocol. Skin specimens were first washed in Salsol A solution (Human Rt, Gödöllö, Hungary) supplemented with 2% antibiotic/antimycotic solution (Sigma-Aldrich). Skin samples were then cut into narrow strips and incubated in Dispase solution (Roche Diagnostics, Mannheim, Germany) overnight at 4° C. The epidermis was subsequently separated from the dermis. Fibroblasts were obtained by incubating the dermis in Digestion Mix solution (Collagenase, Hyaluronidase and Deoxyribonuclease) for 2h at 37° C. Cell suspensions were filtered through a 100 μm nylon mesh (BD Falcon, San Jose, Calif., USA) and cells were pelleted by centrifugation. Fibroblasts were grown in low glucose DMEM medium containing 5% FBS, 1% antibiotic/antimycotic (PAA, Pasching, Austria) and 1% L-glutamine solution (PAA). Fibroblasts were cultured at 37° C. and 5% CO2 in humidified conditions. Depending on the cell growth, the medium was changed every 2-4 days and cells were passaged at 80% of confluence.
The human primary fibroblasts (6000 cells/well) and Hl60 cells (20.000 cells/well) were seeded into 96-well plates (Corning Life Sciences) in media. Fibroblasts were cultured overnight before treatment. […] Resazurin reagent was prepared and used as described in Example 1.
(§5) Viability was calculated with relation to untreated control cells and blank wells containing media without cells. IC50 values (50% inhibiting concentration) were calculated by GraphPad Prism® 5.
A general note: Resazurin is reduced to fluorescent resorufin, in cell work by metabolically active cells.

The test system of data set [3] is mouse mammary carcinoma 4T1. Kind of data set: resazurin viability assay, 72 h (Table 1). Format: cell-based. Conditions: 72h incubation, 156 nM-100 μM.
Data set [4] concerns human promyelocytic leukemia, HL-60 cells. Briefly: resazurin viability assay, 72 h (Table 1). Format: cell-based. As to conditions: 72h incubation, 156 nM-100 μM.
The test system of data set [5] is human breast adenocarcinoma cell line, MCF-7. Kind of data set: resazurin viability assay, 72 h (Table 1). The format is cell-based. As to conditions: MCF7, 72h incubation, 156 nM-100 μM.
The subject of the next data set is HL-60 cells. Briefly: resazurin viability assay, Example 103 (FIG. 1). Conditions: Homo sapiens, 72 h incubation, 20.000 cells/well, read-out: half-inhibitory concentration (IC50) on viability of HL-60 cells. The format is cell-based. Here is the method:
The human primary fibroblasts (6000 cells/well) and Hl60 cells (20.000 cells/well) were seeded into 96-well plates (Corning Life Sciences) in media. Fibroblasts were cultured overnight before treatment. Effects of compounds described in Example 22, 60 and 83 were examined in concentrations of 1 μM, 250 nM, 62.5 nM, 15.6 nM, 3.9 nM and 0.9 nM in 100 μl after 72 h incubation. Resazurin reagent was prepared and used as described in Example 1.
as §5

Data set [6] deals with MV-4-11 (biphenotypic B myelomonocytic leukemia). Briefly: viability assay (Table 3). Format: cell-based. As to conditions: Homo sapiens, MV4-11; 20000 cells/well, 10 μM-0.2 nM. Here is the method: as §1
(§6) Cancer cell lines were purchased from the American Type Culture Collection (ATCC, Manassas, Va., USA). HT29 (human colorectal adenocarcinoma), HL-60 (acute promyelocytic leukemia), THP-1 (acute monocytic leukemia), MOLT-4 (acute T-lymphoblastic leukemia), MV-4-11 (biphenotypic B myelomonocytic leukemia) and K-562 (erythroleukemia) cells were maintained in Roswell Park Memorial Institute 1640 medium (RPMI-1640) with 10% FCS. Media were supplemented with 2 mM GlutaMAX, and 100 U/mL penicillin, 100 μg/mL streptomycin (Life Technologies, Carlsbad, Calif., USA). Cell cultures were maintained at 37° C. in a humidified incubator in an atmosphere of 5% CO2 (Sanyo, Japan).
(§7) Viability assays were performed as described in Example 102 with minor modification for cell density and tested concentration range. Applied cell densities: in case of human primary fibroblast 6000, for HT29 4000, for HL-60, MOLT-4, MV-4-11, THP-1, K-562 20000 cells/well. Applied compound concentration range: 10 μM-0.2 nM.

In data set [7] the test system is HT29 (human colorectal adenocarcinoma). Kind of data set: viability assay (Table 3). The format is cell-based. Conditions: HT-29, 4000 cells/well, 10 μM-0.2 nM. The procedure: as §1, §6, §7
The test system of data set [8] is THP-1 (acute monocytic leukemia). Briefly: viability assay (Table 3). Format: cell-based. Conditions: Homo sapiens, 20000 cells/well, 10 μM-0.2 nM. The procedure: as §1, §6, §7
Data set [9] concerns HL-60 (acute promyelocytic leukemia). Kind of data set: viability assay (Table 3). Format: cell-based. As to conditions: Homo sapiens, 20000 cells/well, 10 μM-0.2 nM. Here is the method: as §1, §6, §7
A further data set has as its system K-562 (erythroleukemia). Briefly: viability assay (Table 3). Format: cell-based. Conditions: Homo sapiens, K562; 20000 cells/well, 10 μM-0.2 nM. Here is the method:
as §1, §6, §7

For data set [10], the system named is MOLT-4 (acute T-lymphoblastic leukemia). Kind of data set: viability assay (Table 3). Format: cell-based. Conditions: Homo sapiens, 20000 cells/well, 10 μM-0.2 nM. Here is the method:
as §1, §6, §7

For another data set, the system named is human primary fibroblast. Briefly: viability assay (Table 3). The format is cell-based. As to conditions: 6000 cells/well, 10 μM-0.2 nM. Here is the method: as §1
Human primary fibroblasts were obtained from the skin by enzymatic digestion according to a standard protocol. Fibroblasts were grown in low glucose DMEM/F12 medium containing 15% FCS, 1% antibiotic/antimycotic (PAA, Pasching, Austria) and 1% L-glutamine solution (PAA). Fibroblasts were cultured at 37° C. and 5% CO2 in humidified conditions. […]

For `CC(C)(C)CC(C)(C)Nc1c(C(C)(C)C)[nH]c2c(C(N)=O)cnn12` [Example 22, 2-(Tert-butyl)-3-((2,4,4-trimethylpentan-2-yl)amino)-1H-imidazo[1,2-b]pyrazole-7-carbox-amide], the melting point – broadly, the temperature of the solid-liquid transition – lay in the range of 155 to 156 °C. The IC50 in [1] turned out to be 5000 nM. Besides, the IC50 with A375 (human melanoma) amounted to 2000 nM. Also, in the data set on HT168 (human melanoma), the IC50 is 3000 nM. In addition, in [2], the “decrease in viability of human primary fibroblasts” value is given as “Significant decrease in viability was not apparent”. In data set [3], this compound showed an IC50 of 1880 nM. In data set [4], this compound gave an IC50 of 1240 nM. In [5], this compound showed an IC50 of 1490 nM. Moreover, the IC50 in the data set on HL-60 cells is 940 nM.
Turning to `CC(C)(C)Nc1c(C(C)(C)C)[nH]c2c(C(=O)Nc3ccc(O)cc3)cnn12` [Example 90, 2-(Tert-butyl)-3-(tert-butylamino)-N-(4-hydroxyphenyl)-1H-imidazo[1,2-b]pyrazole-7-carboxamide], the IC50 in data set [6] was determined as 32.2 nM; in data set [7] it was 9.97 nM; in [8], 25.9 nM; in [9], 16.5 nM; with K-562 (erythroleukemia) it was 54.3 nM; in data set [10], 27.2 nM. In the data set with human primary fibroblast, this compound came in with an IC50 of over 3000 nM.
